6 compounds from US20240239741A1, “META-ESTER AROMATIC DIAMINES, METHOD FOR PRODUCING SAME, AND POLYIMIDE HAVING SAID META-ESTER AROMATIC DIAMINES AS RAW MATERIAL” (SEIKA CORPORATION, priority 2021, published 2024) can be followed below.

Read-outs that look alike come from different tables or passages of the source. Where only a bound is given, the exact number is not on record here.

The nature of the series: Solubility of Diamine in various kinds of solvents. The class given is physicochemical. The note with it: for solubility: organic solvent or mixture, thermodynamic from solid, Sample 30 mg/solvent 2 mL. Here is the method:
Melting points and solubilities in various kinds of solvents of the diamines obtained in the above-described Examples and Comparative Examples are shown in Table 1 below. In the following Table 1, the evaluation +++ indicates soluble at room temperature, the evaluation ++ indicates soluble by heating, the evaluation + indicates half-soluble by heating, and the evaluation − indicates insoluble in solvent.
Sample 30 mg/solvent 2 mL, the evaluation +++ indicates soluble at room temperature, the evaluation ++ indicates soluble by heating, the evaluation + indicates half-soluble by heating, and the evaluation − indicates insoluble.

The mark [1] stands for this setting: MC (methyl cellosolve), MC (methyl cello solve), read-out: Solubility in MC.
Setting [2] is: Acetone, read-out: Solubility in Acetone.
[3] abbreviates: Acetonitrile, read-out: Solubility in Acetonitrile.
Setting [4] is: Chloroform, read-out: Solubility in Chloroform.
Where [5] appears, read: DMF (N,N-dimethylformamide), read-out: Solubility in DMF.
The mark [6] stands for this setting: DMSO (dimethylsulfoxide), read-out: Solubility in DMSO.
[7] abbreviates: Ethyl acetate, read-out: Solubility in Ethyl acetate.
Where [8] appears, read: Isopropanol, read-out: Solubility in Isopropanol.
Setting [9] is: Methanol, read-out: Solubility in Methanol.
Setting [10] is: THF, read-out: Solubility in THF.
Setting [11] is: Toluene, read-out: Solubility in Toluene.
Setting [12] is: m-cresol, read-out: Solubility in m-cresol.

Regarding `Cc1cc(OC(=O)c2ccc(N)cc2)ccc1OC(=O)c1ccc(N)cc1` [Com. Ex. 2, 2,5-bis(4-aminobenzoyloxy)toluene, reference compound], the “Solubility in the various kinds of solvents (in words)” value (“Solubility in the various kinds” below) is recorded as “hot-dissolved barely in a high-polar solvent”. Besides, the solubility under setting [1] is under 15 mg/mL. Also, under setting [2], the solubility was under 15 mg/mL. Under setting [3], the solubility is under 15 mg/mL. Moreover, the solubility under setting [4] was under 15 mg/mL. Also, under setting [5], the solubility was over 15 mg/mL. Besides, the solubility under setting [6] was under 15 mg/mL. Moreover, the solubility under setting [7] is under 15 mg/mL. The solubility under setting [8] was under 15 mg/mL. Besides, the solubility under setting [9] is under 15 mg/mL. For the same compound, the solubility under setting [10] was under 15 mg/mL. Under setting [11], the solubility was under 15 mg/mL. The solubility under setting [12] was under 15 mg/mL.
Turning to `Cc1cc(OC(=O)c2cccc(N)c2)ccc1OC(=O)c1cccc(N)c1` [Example 6, 1-methyl-2,5-bis(3-aminobenzoyloxy)benzene], the solubility reads like this: under setting [1], over 15 mg/mL; under setting [2], over 15 mg/mL; under setting [3], over 15 mg/mL; under setting [4], over 15 mg/mL; under setting [5], over 15 mg/mL; under setting [6], over 15 mg/mL. The solubility by setting is: under setting [7], over 15 mg/mL; under setting [8], under 15 mg/mL; under setting [9], under 15 mg/mL; under setting [10], over 15 mg/mL; under setting [11], under 15 mg/mL; under setting [12], over 15 mg/mL.
Consider `Nc1ccc(C(=O)Oc2ccc(OC(=O)c3ccc(N)cc3)cc2)cc1` [Com. Ex. 1, 1,4-bis(4-aminobenzoyloxy)benzene, reference compound], for which the “Solubility in the various kinds” value was “hot-dissolved only in DMF”. For the same compound, the solubility under setting [1] is under 15 mg/mL. In addition, under setting [2], the solubility was under 15 mg/mL. Besides, the solubility under setting [3] is under 15 mg/mL. Also, the solubility under setting [4] is under 15 mg/mL. The solubility under setting [5] is under 15 mg/mL. Besides, the solubility under setting [6] was under 15 mg/mL. For the same compound, under setting [7], the solubility is under 15 mg/mL. In addition, the solubility under setting [8] was under 15 mg/mL. For the same compound, the solubility under setting [10] was under 15 mg/mL. Further, the solubility under setting [11] was under 15 mg/mL. For the same compound, under setting [12], the solubility was under 15 mg/mL.
With `Nc1cccc(C(=O)Oc2ccc(S(=O)(=O)c3ccc(OC(=O)c4cccc(N)c4)cc3)cc2)c1` [Example 4, bis[4-(3-aminobenzoyloxy)phenyl]sulfone], the solubility under setting [1] is under 15 mg/mL; the solubility under setting [2] is under 15 mg/mL; the solubility under setting [3] is under 15 mg/mL; the solubility under setting [4] is under 15 mg/mL; the solubility under setting [5] was over 15 mg/mL; the solubility under setting [6] was over 15 mg/mL. For the same compound, the solubility runs as follows: under setting [7], under 15 mg/mL; under setting [8], under 15 mg/mL; under setting [9], under 15 mg/mL; under setting [10], under 15 mg/mL; under setting [11], under 15 mg/mL; under setting [12], over 15 mg/mL.
On to `Cc1cc(OC(=O)c2cccc(N)c2)c(C)c(C)c1OC(=O)c1cccc(N)c1` [Example 8, 1,2,4-trimethyl-3,6-bis(3-aminobenzoyloxy)benzene], for which the solubility under setting [1] was over 15 mg/mL; the solubility under setting [2] was over 15 mg/mL; the solubility under setting [3] is over 15 mg/mL; the solubility under setting [4] was over 15 mg/mL; the solubility under setting [5] is over 15 mg/mL; the solubility under setting [6] was over 15 mg/mL. Also, the solubility by setting is: under setting [7], over 15 mg/mL; under setting [8], under 15 mg/mL; under setting [9], under 15 mg/mL; under setting [10], over 15 mg/mL; under setting [11], under 15 mg/mL; under setting [12], over 15 mg/mL.
On to `Nc1cccc(C(=O)Oc2ccc(C(c3ccc(OC(=O)c4cccc(N)c4)cc3)(C(F)(F)F)C(F)(F)F)cc2)c1` [Example 2, 2,2′-bis[4-(3-aminobenzoyloxy)phenyl]hexafluoropropane], for which the “Solubility in the various kinds” value was “easily dissolved in various solvents”. Under setting [1], the solubility was over 15 mg/mL. Also, the solubility under setting [2] was over 15 mg/mL. Moreover, under setting [3], the solubility was over 15 mg/mL. Besides, the solubility under setting [4] is under 15 mg/mL. Further, the solubility under setting [5] is over 15 mg/mL. In addition, the solubility under setting [6] was over 15 mg/mL. The solubility under setting [7] is over 15 mg/mL. Also, the solubility under setting [8] was under 15 mg/mL. Moreover, under setting [9], the solubility is over 15 mg/mL. Besides, under setting [10], the solubility is over 15 mg/mL. Also, the solubility under setting [11] is under 15 mg/mL. Also, under setting [12], the solubility was over 15 mg/mL.

A word on the solubility: it is the dissolved amount per volume that the medium holds.
